Molecular target: T1, CCR2 (Homo sapiens, UniProt P41597)
T1 construct: host or cells: THP-1 (human monocytic cell line)
Assay: MCP-1 Receptor Binding Assay in THP-1 Cells
Settings: read-out: MCP1B_v3 IC50
Description: Compounds of the invention were subjected to various representative biological tests. […] MCP-1 Receptor Binding Assay in THP-1 Cells Human monocytic cell line THP-1 cells were obtained from American Type Culture Collection (Manassas, Va., USA). The THP-1 cells were grown in RPMI-1640 (RPMI: Roswell Park Memorial Institute Medium-cell culture growth media) supplemented with 10% fetal bovine serum in a humidified 5% CO2 atmosphere at 37° C. The cell density was maintained between […].
THP-1 (cells were incubated with 0.5 nM ^125I labeled MCP-1 (Perkin-Elmer Life Sciences, Inc. Boston, Mass.) in the presence of varying concentrations of either unlabeled MCP-1 (R & D Systems, Minneapolis, Minn.) or test compound for 2 hours at 30° C. in a 96 well plate. Cells were then harvested onto a filter plate, dried, and 20 μL of Microscint 20 was added to each well. Plates were counted in a TopCount NXT, Microplate Scintillation & Luminescence Counter (Perkin-Elmer Life Sciences, Inc. Boston, Mass.). Blank values (buffer only) were subtracted from all values and drug treated values were compared to vehicle treated values. 1 μM cold MCP-1 was used for nonspecific binding.

T1 sequence (P41597 whole entry): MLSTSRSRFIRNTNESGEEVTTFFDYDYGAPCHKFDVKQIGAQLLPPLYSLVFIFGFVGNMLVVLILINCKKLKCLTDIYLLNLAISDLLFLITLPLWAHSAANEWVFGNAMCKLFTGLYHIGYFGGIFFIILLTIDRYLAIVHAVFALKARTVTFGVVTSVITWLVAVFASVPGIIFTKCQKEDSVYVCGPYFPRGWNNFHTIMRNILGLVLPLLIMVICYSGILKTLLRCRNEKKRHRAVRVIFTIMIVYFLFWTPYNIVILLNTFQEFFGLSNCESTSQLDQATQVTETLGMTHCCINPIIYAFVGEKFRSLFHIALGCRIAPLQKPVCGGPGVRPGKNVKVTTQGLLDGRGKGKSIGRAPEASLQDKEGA

IC50 | SMILES
60 nM | COC1COCCC1N[C@@H]1C[C@H]2CN(C(N)=O)C[C@@]2(C(=O)N2CCc3ncc(C(F)(F)F)cc3C2)C1 (relative stereo) [Example 2, (3aR,5R,6aR)-5-(((3S*,4S*)-(3-Methoxytetrahydro-2H-pyran-4-yl)amino)-3a-(3-(trifluoromethyl)-5,6,7,8-tetrahydro-1,6-naphthyridine-6-carbonyl)hexahydrocyclopenta[c]pyrrole-2(1H)-carboxamide]
1350 nM | CO[C@@H]1COCC[C@H]1N[C@@H]1C[C@H]2CN(C(N)=O)C[C@@]2(C(=O)N2CCc3ncc(C(F)(F)F)cc3C2)C1 (relative stereo) [Example 5, (3aR,5R,6aR)-5-(((3S*,4R*)-(3-Methoxytetrahydro-2H-pyran-4-yl)amino)-3a-(3-(trifluoromethyl)-5,6,7,8-tetrahydro-1,6-naphthyridine-6-carbonyl)hexahydrocyclopenta-[c]pyrrole-2(1H)-carboxamide]
10 nM | COC1COCCC1N[C@@H]1C[C@H]2CN(C(N)=O)C[C@@]2(C(=O)N2CCc3ccc(C(F)(F)F)cc3C2)C1 (relative stereo) [Example 6, (3aR,5R,6aR)-5-(((3S*,4S*)-3-Methoxytetrahydro-2H-pyran-4-yl)amino)-3a-(7-(trifluoromethyl)-1,2,3,4-tetrahydroisoquinoline-2-carbonyl)hexahydrocyclopenta-[c]pyrrole-2(1H)-carboxamide]
190 nM | CCOC1COCCC1N[C@@H]1C[C@H]2CN(C(N)=O)C[C@@]2(C(=O)N2CCc3ncc(C(F)(F)F)cc3C2)C1 (relative stereo) [Example 9, (3aR,5R,6aR)-5-(((3S*,4S*)-3-Ethoxytetrahydro-2H-pyran-4-yl)amino)-3a-(3-(trifluoromethyl)-5,6,7,8-tetrahydro-1,6-naphthyridine-6-carbonyl)hexahydrocyclopenta-[c]pyrrole-2(1H)-carboxamide]
320 nM | COC1COCCC1N[C@@H]1C[C@H]2CN(C(N)=O)C[C@@]2(C(=O)NCc2cccc(C(F)(F)F)c2)C1 (relative stereo) [Example 10, (3aR,5R,6aR)-5-(((3S*,4S*)-3-Methoxytetrahydro-2H-pyran-4-yl)amino)-N^3a-(3-(trifluoromethyl)benzyl)hexahydrocyclopenta[c]pyrrole-2,3a(1H)-dicarboxamide]
320 nM | COC1COCCC1N[C@@H]1C[C@H]2CN(C(N)=O)C[C@@]2(C(=O)NCc2cc(F)cc(C(F)(F)F)c2)C1 (relative stereo) [Example 11, (3aR,5R,6aR)-N^3a-(3-Fluoro-5-(trifluoromethyl)benzyl)-5-(((3S*,4S*)-3-methoxytetrahydro-2H-pyran-4-yl)amino)hexahydrocyclopenta[c]pyrrole-2,3a(1H)-dicarboxamide]
100 nM | COC1COCCC1N[C@@H]1C[C@H]2CN(C(N)=O)C[C@@]2(C(=O)NCc2cc(C(F)(F)F)cc(C(F)(F)F)c2)C1 (relative stereo) [Example 12, (3aR,5R,6aR)-N^3a-(3,5-Bis(trifluoromethyl)benzyl)-5-(((3S*,4S*)-3-methoxytetrahydro-2H-pyran-4-yl)amino)hexahydrocyclopenta[c]pyrrole-2,3a(1H)-dicarboxamide]
60 nM | COC1COCCC1N[C@@H]1C[C@H]2CN(C(=O)NCc3ccccc3)C[C@@]2(C(=O)N2CCc3ncc(C(F)(F)F)cc3C2)C1 (relative stereo) [Example 17, (3aR,5R,6aR)-N-benzyl-5-(((3S*,4S*)-(3-methoxytetrahydro-2H-pyran-4-yl)amino)-3a-(3-(trifluoromethyl)-5,6,7,8-tetrahydro-1,6-naphthyridine-6-carbonyl)hexahydrocyclopenta-[c]pyrrole-2(1H)-carboxamide]

The next lines start with the molecule.

SMILES | IC50
CNC(=O)N1C[C@@H]2C[C@@H](NC3CCOCC3OC)C[C@]2(C(=O)N2CCc3ncc(C(F)(F)F)cc3C2)C1 (relative stereo) [Example 13, (3aR,5R,6aR)-5-(((3S*,4S*)-(3-Methoxytetrahydro-2H-pyran-4-yl)amino)-N-methyl-3a-(3-(trifluoromethyl)-5,6,7,8-tetrahydro-1,6-naphthyridine-6-carbonyl)hexahydrocyclopenta-[c]pyrrole-2(1H)-carboxamide] | 80 nM
COC1COCCC1N[C@@H]1C[C@H]2CN(C(=O)NC(C)C)C[C@@]2(C(=O)N2CCc3ncc(C(F)(F)F)cc3C2)C1 (relative stereo) [Example 14, (3aR,5R,6aR)-N-Isopropyl-5-(((3S*,4S*)-(3-methoxytetrahydro-2H-pyran-4-yl)amino)-3a-(3-(trifluoromethyl)-5,6,7,8-tetrahydro-1,6-naphthyridine-6-carbonyl)hexahydrocyclopenta[c]pyrrole-2(1H)-carboxamide] | 410 nM
COC1COCCC1N[C@@H]1C[C@H]2CN(C(=O)NCC(C)C)C[C@@]2(C(=O)N2CCc3ncc(C(F)(F)F)cc3C2)C1 (relative stereo) [Example 15, (3aR,5R,6aR)-N-Isobutyl-5-(((3S*4S*)-(3-methoxytetrahydro-2H-pyran-4-yl)amino)-3a-(3-(trifluoromethyl)-5,6,7,8-tetrahydro-1,6-naphthyridine-6-carbonyl)hexahydrocyclopenta-[c]pyrrole-2(1H)-carboxamide] | 110 nM
COC1COCCC1N[C@@H]1C[C@H]2CN(C(=O)Nc3ccccc3)C[C@@]2(C(=O)N2CCc3ncc(C(F)(F)F)cc3C2)C1 (relative stereo) [Example 16, (3aR,5R,6aR)-5-(((3S*,4S*)-(3-methoxytetrahydro-2H-pyran-4-yl)amino)-N-phenyl-3a-(3-(trifluoromethyl)-5,6,7,8-tetrahydro-1,6-naphthyridine-6-carbonyl)hexahydrocyclopenta-[c]pyrrole-2(1H)-carboxamide] | 470 nM
COC1COCCC1N[C@@H]1C[C@H]2CN(C(=O)NCC(C)(C)C)C[C@@]2(C(=O)N2CCc3ncc(C(F)(F)F)cc3C2)C1 (relative stereo) [Example 18, (3aR,5R,6aR)-5-(((3S*,4S*)-3-Methoxytetrahydro-2H-pyran-4-yl)amino)-N-neopentyl-3a-(3-(trifluoromethyl)-5,6,7,8-tetrahydro-1,6-naphthyridine-6-carbonyl)hexahydrocyclopenta[c]pyrrole-2(1H)-carboxamide] | 410 nM
COCCNC(=O)N1C[C@@H]2C[C@@H](NC3CCOCC3OC)C[C@]2(C(=O)N2CCc3ncc(C(F)(F)F)cc3C2)C1 (relative stereo) [Example 19, (3aR,5R,6aR)-N-(2-Methoxyethyl)-5-(((3S*,4S*)-3-methoxytetrahydro-2H-pyran-4-yl)amino)-3a-(3-(trifluoromethyl)-5,6,7,8-tetrahydro-1,6-naphthyridine-6-carbonyl)hexahydrocyclopenta[c]pyrrole-2(1H)-carboxamide] | 380 nM
COC1COCCC1N[C@@H]1C[C@H]2CN(C(=O)N(C)C)C[C@@]2(C(=O)N2CCc3ncc(C(F)(F)F)cc3C2)C1 (relative stereo) [Example 21, (3aR,5R,6aR)-5-(((3S*,4S*)-3-Methoxytetrahydro-2H-pyran-4-yl)amino)-N,N-dimethyl-3a-(3-(trifluoromethyl)-5,6,7,8-tetrahydro-1,6-naphthyridine-6-carbonyl)hexahydrocyclopenta[c]pyrrole-2(1H)-carboxamide] | 220 nM
COC1COCCC1N[C@@H]1C[C@H]2CN(C(=O)N3CCOCC3)C[C@@]2(C(=O)N2CCc3ncc(C(F)(F)F)cc3C2)C1 (relative stereo) [Example 22, ((3aR,5R,6aR)-5-(((3S*,4S*)-3-Methoxytetrahydro-2H-pyran-4-yl)amino)-2-(morpholine-4-carbonyl)octahydrocyclopenta[c]pyrrol-3a-yl)(3-(trifluoromethyl)-7,8-dihydro-1,6-naphthyridin-6(5H)-yl)methanone] | 420 nM
COC1COCCC1N[C@@H]1C[C@H]2CN(C(=O)n3ccnc3)C[C@@]2(C(=O)N2CCc3ncc(C(F)(F)F)cc3C2)C1 (relative stereo) [Example 23, ((3aR,5R,6aR)-2-(1H-Imidazole-1-carbonyl)-5-(((3S*,4S*)-3-methoxytetrahydro-2H-pyran-4-yl)amino)octahydrocyclopenta[c]pyrrol-3a-yl)(3-(trifluoromethyl)-7,8-dihydro-1,6-naphthyridin-6(5H)-yl)methanone] | 280 nM
COC1COCCC1N[C@@H]1C[C@H]2CN(C(=O)n3ccnc3)C[C@@]2(C(=O)N2CCc3ccc(C(F)(F)F)cc3C2)C1 (relative stereo) [Example 24, ((3aR,5R,6aR)-2-(1H-Imidazole-1-carbonyl)-5-(((3S*,4S*)-3-methoxytetrahydro-2H-pyran-4-yl)amino)octahydrocyclopenta[c]pyrrol-3a-yl)(7-(trifluoromethyl)-3,4-dihydroisoquinolin-2(1H)-yl)methanone] | 50 nM
COC1COCCC1N[C@@H]1C[C@H]2CN(C(N)=S)C[C@@]2(C(=O)N2CCc3ncc(C(F)(F)F)cc3C2)C1 (relative stereo) [Example 25, (3aR,5R,6aR)-5-(((3S*,4S*)-3-Methoxytetrahydro-2H-pyran-4-yl)amino)-3a-(3-(trifluoromethyl)-5,6,7,8-tetrahydro-1,6-naphthyridine-6-carbonyl)hexahydrocyclopenta-[c]pyrrole-2(1H)-carbothioamide] | 90 nM

— patent US9024017B2, “Octahydro-cyclopentapyrrolyl antagonists of CCR2” (Janssen Pharmaceutica NV, priority 2012, dated 2015)
